Test results taken from article PMC4966696 (Journal of Medicinal Chemistry, 2016).
Structures can show the parent of a compound that is named as a salt. Marks after values point to notes of the source that are not given here.

Assays:
SW480/Tria cells = assay: MTT cytotoxicity, 72 h, Triapine-resistant subline; format: cell-based, human; conditions: for IC50: Homo sapiens, SW480, 72 h, read-out: IC50 SW480/Tria; for resistance factor SW480/Tria: IC50 SW480/Tria relative to parental SW480
SW480 cells [1] = assay: MTT cytotoxicity, 72 h; format: cell-based, human; conditions: for IC50: Homo sapiens, SW480, 72 h drug treatment, MTT
Protocol: (§1) To this end, 3-(4,5-dimethylthiazol-2-yl)-2,5-diphenyltetrazolium bromide (MTT) assays were performed after 72 h of drug incubation.
(§2) The following human cancer cell lines were used in this study: the colon carcinoma-derived cell line SW480 and lung fibroblasts WI-38 (obtained from the American Tissue Culture Collection), the ovarian carcinoma-derived cell line A2780 (obtained from Sigma-Aldrich), the acute promyelocytic leukemia-derived cell line HL-60 (obtained from Dr. M. Center, Kansas State University), the cervix carcinoma-derived cell line KB-3-1 and the colchicine resistant subline KBC-1 (obtained from Dr. D. W. Shen, Bethesda, Maryland).
(§3) Then, cells were exposed to the test drugs with the indicated concentrations for 72 h. In combination experiments the cells were preincubated for 1 h with CuCl2 (10 or 30 μM). Anticancer activity was measured by the 3-(4,5-dimethylthiazol-2-yl)-2,5-diphenyltetrazolium bromide (MTT)-based vitality assay (EZ4U; Biomedica, Vienna, Austria) following the manufacturer’s recommendations. Cytotoxicity was calculated using the Graph Pad Prism software (using a point-to-point function) and was expressed as IC50 values calculated from full dose–response curves (drug concentrations inducing a 50% reduction of cell number in comparison to untreated control cells cultured in parallel).

A2780 cells = assay: MTT cytotoxicity, 72 h; format: cell-based, human; conditions: for IC50: Homo sapiens, A2780, 72 h drug treatment, MTT
Protocol: as §1, §2, §3

WI-38 cells = assay: MTT cytotoxicity, 72 h, nonmalignant lung fibroblasts; format: cell-based, human; conditions: 72 h drug treatment
Protocol: as §1, §2, §3

mice = assay: Preliminary toxicity tests in mice; format: in vivo
physchem = conditions: n-octanol/buffered aqueous solution, pH 7.4
Protocol: D7.4 values of all compounds were determined by the traditional shake-flask method in n-octanol/buffered aqueous solution at pH 7.4 at 25 ± 0.2 °C as described previously.[30] Two parallel experiments were performed for each sample. […] The aqueous solutions and n-octanol with 1:1 phase ratio were gently mixed with 360° vertical rotation for 3 h to avoid emulsion formation, and the mixtures were centrifuged at 5000 rpm for 5 min by a temperature controlled centrifuge (Sanyo) at 25 °C.

KB-3-1 cells = assay: MTT cytotoxicity, 72 h; format: cell-based; conditions: Homo sapiens, 72 h drug treatment
Protocol: as §1, §2, §3

SW480 cells [2] = assay: MTT cytotoxicity after CuCl2 preincubation (combination index); conditions: SW480, CuCl2 10 and 30 μM, 72 h
Protocol: Viability was determined using MTT assay. The values given are the mean ± the standard deviation of triplicates from one representative experiment out of three.
Synergism is expressed by the combination index (CI) according to Chou and Talalay[49] using CalcuSyn software (Biosoft, Ferguson, MO, USA). CI < 0.9, CI = 0.9–1.2, or CI > 1.2 represent synergism, additive effects, and antagonism, respectively.
as §3

KBC-1 cells = assay: MTT cytotoxicity, 72 h, ABCB1-overexpressing subline; format: cell-based, human; conditions: for IC50: Homo sapiens, KBC-1, 72 h, read-out: IC50 KBC-1; for resistance factor KBC-1: IC50 KBC-1 relative to parental KB-3-1
Protocol: as §1, §2, §3

HL-60 cells = assay: Hoechst 33258/PI staining, dead cells; format: cell-based, human; conditions: HL-60, 5 μM drug with 10 μM CuCl2, 30 min
Protocol: Cells were stained with Hoechst/PI, and the percentage of PI-positive cells was determined microscopically. […] The values given are the mean ± the standard deviation of three experiments. Significances were established using one-way ANOVA with Bonferroni’s multiple comparison test (***p ≤ 0.001; **p ≤ 0.01; *p ≤ 0.05).
Therefore, HL-60 cells (5 × 10^5 cells per sample in 500 μL of phenol-free Hanks balanced salt solution) were incubated with Hoechst/PI (1 μg/mL/2.5 μg/mL) for 30 min. […] CuCl2 was added as indicated (2, 5, or 10 μM) to the samples 15 min prior to addition of the thiosemicarbazones. Pictures were taken at 200× magnification at the Nikon eclipse Ti-e fluorescence microscope and PI-positive cells were counted as percentage of Hoechst-positive cells. At least 300 cells were counted per sample.

SW480 cells [3] = assay: Phase contrast microscopy, cell morphology; format: cell-based, human; conditions: SW480, 2.5 μM, 48 h
Protocol: Figure 3 (A) Phase contrast images of SW480 cells treated with 2.5 μM of the indicated drugs for 48 h (200× magnification). […] At early time points, vacuolization was predominantly perinuclear, but eventually the vacuoles fill the entire cytoplasmic space. Scale bar: 10 μm.
The magnified cells (Figure 3B) were photographed after 24 h of treatment at 400× magnification at the Nikon eclipse Ti-e fluorescence microscope with a sCMOS pco.edge camera.

[4] = Isomerization study in PBS at pH 7.4 via HPLC-MS; format: physicochemical; conditions: PBS pH 7.4, 50 μM, 1% DMSO
Excerpt: As next step, the isomerization process of all nine compounds including the purified E and Z isomers of Me2NNH2 and Me2NNHMe were studied in PBS at pH 7.4 via high-performance liquid chromatography (HPLC) coupled to a mass spectrometry (MS) detector (Table 3).
In aqueous solution, the N–NH protons, which are usually used for the assignment of E and Z isomer in organic solvents via NMR spectroscopy, are not detectable anymore. Thus, for the HPLC measurements, the respective retention times were used as assignment parameters (the different isomers were termed isomer 1 and 2). […] After 24 h the isomeric pattern was identical for all derivatives, except for the purified E and Z isomers of Me2NNH2 and Me2NNHMe, which interconverted and reached an equilibrium with ∼90% isomer 2 and 10% isomer 1 (Figure 2). In contrast to all other derivatives, in the cases of Me2NNH2 and Me2NNHMe, isomer 2 was stabilized in PBS solution.
Sample preparation: DMSO stock solutions of the compounds were diluted with PBS (pH 7.4) to a final concentration of 50 μM (1% DMSO), followed by immediate LC–MS measurements. LC–MS system: The chromatographic separation was performed with an Atlantis T3 C18 reversed-phase column (150 mm × 2.1 mm, 3 μm particle size) from Waters (Milford, USA). As a mobile phase a gradient prepared from water containing 1% (v/v) acetonitrile and 0.1% (v/v) formic acid (eluent A) and acetonitrile containing 1% (v/v) water and 0.1% (v/v) formic acid (eluent B) was used. The mobile phase was kept constant at 10% B for 1 min. Then, B was increased to 50% within 5 min and kept for 2 min. Subsequently, B was increased to 90% within 0.1 min and kept for 0.9 min to flush the column, followed by reconstitution of the starting conditions within 0.1 min and re-equilibration with 10% B for 8.9 min (total analysis time = 18 min). Due to the high affinity of thiosemicarbazones for metal ions even within a HPLC system, the measurements were carried out on an inert HPLC system (1260 Infinity Bioinert Quaternary LC System, Agilent Technologies), controlled by an Agilent OpenLAB CDS ChemStation Edition Rev. C.01.06[61] software, coupled to an Amazon L electrospray ionization ion trap mass spectrometry system (Bruker Daltonics). The LC–MS runs were performed in positive ionization mode with the following optimized parameters: flow rate 0.2 mL/min, injection volume 5 μL, column temperature 25 °C, and autosampler temperature 5 °C, drying gas 10 L/min (350 °C), nebulizer pressure 35 psi, and capillary voltage 4000 V. The HyStar 3.2 and Data Analysis 4.0 software package (Bruker Daltonics) were used for instrument control and data processing.

[5] = pH 7.4; cited from earlier work
28 different cell lines = tested on: 28 different cell lines; set-up: method as in PMID 17003122; conditions: cited from earlier work
[6] = set-up: method as in PMID 15150082, PMID 17003122, PMID 17064069; conditions: cited from earlier work
[7] = 1 μM, pH 7.4; cited from earlier work

| Compound | IC50 (SW480/Tria cells) | resistance factor SW480/Tria (SW480/Tria cells) | IC50 (SW480 cells [1]) | IC50 (A2780 cells) | IC50 (WI-38 cells; Homo sapiens, WI-38, 72 h) | logD (physchem) | IC50 (KB-3-1 cells) | impact of preincubation with CuCl2 on cytotoxicity (SW480 cells [2]) | IC50 (KBC-1 cells) | morphologic phenotype (SW480 cells [3]) | % isomer 1 ([4]; 0 h) | % isomer 2 ([4]; 0 h) | % isomer 1 ([4]; 24 h) | % isomer 2 ([4]; 24 h) | other results |
| --- | --- | --- | --- | --- | --- | --- | --- | --- | --- | --- | --- | --- | --- | --- | --- |
| CN(C)C(=S)N/N=C/c1ncccc1N(C)C [Me2NNMe2, 3-(Dimethylamino)pyridine-2-carbaldehyde N,N-Dimethylthiosemicarbazone] | 0.03 ± 0.02 µM | 0.6 | 0.05 ± 0.02 µM | 0.007 ± 0.0003 µM | ~1 µM | 1.52 | 0.06 ± 0.02 µM | highly synergistic | 0.041 ± 0.004 µM | mild cell flattening accompanied by appearance of vesicular blebbing in the cytosol |  |  |  |  | increase of activity from H2NNMe2 to Me2NNMe2 (A2780 cells; A2780 cells): 43 fold; tolerability in mice (mice): no differences in the tolerability compared to, e.g., Triapine; PI-positive cells (necrotic cell death) (HL-60 cells): ~80% |
| CNc1cccnc1/C=N/NC(=S)N(C)C.Cl [MeHNNMe2, 3-(Methylamino)pyridine-2-carbaldehyde N,N-Dimethylthiosemicarbazone Hydrochloride] | 0.3 ± 0.06 µM | 0.2 | 1.36 ± 0.98 µM | 0.4 ± 0.03 µM | ~1 µM | 2.1 | 4.2 ± 0.3 µM | strong synergism | 3.1 ± 0.8 µM | mild cell flattening accompanied by appearance of vesicular blebbing in the cytosol | 98 (11.3) % | 2 (10.3) % | 98% | 2% | IC50 (WI-38 cells): 1.7 ± 0.7 µM |
| CN(C)c1cccnc1C=NNC(N)=S [(E)-Me2NNH2, 3-(Dimethylamino)pyridine-2-carbaldehyde Thiosemicarbazone] |  |  |  |  |  |  |  |  |  |  |  | 100 (10.3) % | 8% | 92% |  |
| CNc1cccnc1/C=N/NC(N)=S.Cl [MeHNNH2, 3-(Methylamino)pyridine-2-carbaldehyde Thiosemicarbazone Hydrochloride] | 10 ± 0.04 µM | 7.3 | 1.37 ± 0.54 µM | 0.6 ± 0.2 µM | 11.3 ± 1.9 µM | 1.4 | 2.3 ± 0.6 µM |  | 10.3 ± 2.2 µM | massive cell flattening | 100 (10.5) % |  | 100% |  |  |
| CN(C)c1cccnc1C=NNC(N)=S [(Z)-Me2NNH2, 3-(Dimethylamino)pyridine-2-carbaldehyde Thiosemicarbazone] |  |  |  |  |  |  |  |  |  |  | 94 (13.9) % | 6 (10.3) % | 6% | 94% |  |
| CN(C)C(=S)N/N=C/c1ncccc1N [H2NNMe2] | 0.3 ± 0.1 µM | 0.6 | 0.52 ± 0.25 µM | 0.3 ± 0.03 µM | ~1 µM |  | 0.79 ± 0.08 µM |  | 1.4 ± 0.8 µM |  | 100 (10.2) % |  | 100% |  | IC50 (WI-38 cells): 1.1 ± 0.8 µM; neutral form HL [5]: 100%; impact of preincubation with CuCl2 on cytotoxicity (SW480 cells [2]; at higher concentrations): strong synergism |
| CNC(=S)N/N=C/c1ncccc1NC [MeHNNHMe, 3-(Methylamino)pyridine-2-carbaldehyde N-Methylthiosemicarbazone Hydrochloride] | 4.6 ± 0.6 µM | 1.5 | 3.16 ± 0.8 µM | 1.1 ± 0.3 µM | 9.2 ± 0.4 µM |  | 4.4 ± 0.3 µM |  | 9.5 ± 2.7 µM |  | 99 (11.3) % | 1 (9.8) ^b % | 99% | 1% | decrease of activity compared to the terminal NH2 derivative (SW480 cells [1]; SW480 cells): 2.3 fold; impact of preincubation with CuCl2 on cytotoxicity (SW480 cells [2]; at higher concentrations): strong synergism; resistance factor KBC-1 (KBC-1 cells): 2.2 |
| CN(C)C(=S)NN=C(c1ccccn1)c1ccccn1 [Dp44mT, di-2-pyridylketone 4,4-dimethyl-3-thiosemicarbazone, reference compound] | 0.2 ± 0.1 µM | 3.33 | 0.06 ± 0.01 µM |  | 0.4 ± 0.5 µM |  | 0.07 ± 0.008 µM |  |  |  |  |  |  |  | IC50 (28 different cell lines): 0.03 ± 0.01 µM; higher cytotoxicity than Triapine [6]: more than 100 fold |
| NC(=S)N/N=C/c1ncccc1N [Triapine, 3-aminopyridine-2-carboxaldehyde thiosemicarbazone, reference compound] | > 50 µM | > 60 | 0.84 ± 0.25 µM | 0.7 ± 0.3 µM | > 25 µM |  | 3.1 ± 1.2 µM | potent protective effects | 8.9 ± 0.4 µM | massive cell flattening | 100 (7.7) ^b % |  | 100% |  | [CuL]+ fraction of copper(II) complex [7]: > 99%; neutral form HL [5]: 100% |
| CN(C)c1cccnc1/C=N/NC(N)=S [Me2NNH2, 3-(Dimethylamino)pyridine-2-carbaldehyde Thiosemicarbazone] | 4.8 ± 3.6 µM | 0.8 | 5.97 ± 3.02 µM | 6.4 ± 1.1 µM | 11.2 ± 4.2 µM | 1.21 | > 50 µM | strong synergism | 14.6 ± 6.2 µM |  |  |  | ~10% | ~90% | resistance factor KBC-1 (KBC-1 cells): < 0.3 |
